Patent US10370385B2, “Tricyclic mosquitocides and methods of making and using thereof” (The Arizona Board of Regents on Behalf of the University of …, priority 2014, dated 2019)

Legend:
[1] = tested on: Aedes aegypti (Rockefeller strain) mosquitoes; assay: Microinjection into female mosquitoes before blood feeding; observation for defective phenotypes (midgut, blood meal storage); assay type: in vivo; conditions: 200 nL of 5.0 mM compound in 5% DMSO microinjected into four day old females; fed human blood one day later
Protocol: Aedes aegypti (Rockefeller strain) mosquitoes were reared in standard conditions. Four day old female mosquitoes were microinjected with 200 nL of 5% DMSO (control) or the compound described in Example 1, i.e. 4-isopropyl-8-phenyl-1,3,4,6,6a,9b-hexahydrothiopyrano [3,4-e]isoindole-7,9(8H,9aH)-dione (5.0 mM in 5% DMSO), using Nanoject II (Drummond). The injected mosquitoes were recovered for one day in the environmental chamber and fed on warmed human blood through a membrane feeder. Twenty fully fed mosquitoes from each group were observed under a dissecting microscope for defective phenotypes, including midgut and primary follicle development in the ovaries during the first gonotrophic cycle.

blood-fed mosquitoes = assay: Evaluation of follicle size after microinjection into blood-fed mosquitos; assay type: in vivo, Aedes aegypti; conditions: 200 nl of 0.7 mM compound microinjected one hour after blood feeding; ovaries dissected 48 h post blood meal; DMSO control 452.8±6.4 μm
Protocol: The mosquitos were reared in environmental chambers. Larvae were then fed with a mixture of tropical flakes, rat chow, liver powder, or cat food pellets. Adult pests were maintained on 10% sucrose. Four-day old mosquitos were allowed to feed on human blood supplemented with fresh ATP. One hour after blood feeding, the mosquitos were briefly chilled at 4° C. to immobilize. 200 nl of the compound, 4-isopropyl-8-phenyl-1,3,4,6,6a,9b-hexahydrothiopyrano [3,4-e]isoindole-7,9(8H,9aH)-dione, was diluted in water to a final concentration of 0.7 mM before use. Then the compound was microinjected with a microinjector into fully fed mosquitos. For each experiment, the mosquitos were also microinjected with 2% DMSO (control). Mosquitos were allowed to feed 10% sucrose, and 48 h post blood meal, ovaries were dissected from the injected mosquitos in 1×PBS under a microscope. Ovaries were teased to separate follicles, and the images were digitally captured for follicle length measurement.

[2] = tested on: mosquito larvae (second instar); assay: Evaluation of mosquito larval mortality; assay type: in vivo, Aedes aegypti; conditions: 0.2 mM in larval growth media, 24 hours of exposure
Protocol: Two-day-old second instar larvae were transferred to wells in a plate containing 1 ml of larval growth media. The 4-isopropyl-8-phenyl-1,3,4,6,6a,9b-hexahydrothiopyrano [3,4-e]isoindole-7,9(8H,9aH)-dione and DMSO (control) were added directly to the media and swirled. The final concentration of the 4-isopropyl-8-phenyl-1,3,4,6,6a,9b-hexahydrothiopyrano [3,4-e]isoindole-7,9(8H,9aH)-dione in each well was 0.2 mM, the DMSO concentration was 0.2%. The plates were kept in the environmental chamber. Mosquito larvae were examined under a microscope for any sign of mortality 24 hours after exposure. Data obtained from at least three biological replicates were statistically analyzed with the Bonferroni post tests.

CC(C)[C@@H]1CSC[C@@H]2C1=CC[C@@H]1C(=O)N(c3ccccc3)C(=O)[C@@H]12 [4-isopropyl-8-phenyl-1,3,4,6,6a,9b-hexahydrothiopyrano [3,4-e]isoindole-7,9(8H,9aH)-dione]
blood-fed mosquitoes exhibiting the defect in the alimentary canal (blood meal misdirected into the ventral diverticulum) [1]: 40%
follicle size (blood-fed mosquitoes): 145.6±11.0 μm
number of mosquito larvae died [2]: 18 out of 45 mosquito larvae
mosquito larvae died ([2]; all control larvae survived): 40%
